Experimental data from patent US12116365B2, “Heterocyclic compounds and uses thereof” (Opna Bio SA, priority 2015, dated 2024).
Entries after “also recorded” stand apart in the source; their conditions may differ.

Legend:
[1] = Rat PK, cassette dosing, IV and PO; type: in vivo; conditions: for Cl (mL/min/Kg) / Vss (L/Kg) / AUC / Cmax / Tmax / half-life: Mean (SE); for AUC / Cmax / Tmax / half-life / bioavailability: plasma
Method: Rat PK data was determined using a cassette dosing format with 5 compounds administered to each of three rats for IV and three rats for PO. The IV dose was 1 mg/kg for each compound in 8.75% solutol, 8.75% ethanol, 12.5% DMSO and 70% water by volume. The PO dose was 2 mg/kg for each compound in 1% methylcellulose in water, 10% DMSO by volume. Plasma IV samples were collected at 15 min, 30 min, 1 hr, 2 hrs, 4 hrs, 8 hrs, and 24 hrs. Plasma PO samples were collected at 30 min, 1 hr, 2 hrs, 4 hrs, 8 hrs, and 24 hrs. Plasma drug concentrations were determined by LC/MS/MS after standard curve calibration for each test article. Dosing solutions were also analyzed for test article and used to calculate the administered dose. The PK parameters were calculated using WinNonLin (v 6.3, Phoenix 64, Pharsight) using a noncompartmental model.
Tables 1 and 2 show comparative data for both intravenous (IV) and peroral (PO) administration in rat for Compound P-001 of this disclosure and a similar structural compound disclosed in the WO 2014/145051, Compound Z. Values are reported as the Mean with the Standard Error (SE) in parentheses.

[2] = test system: IPC298 Xenograft; experiment: IPC298 xenograft model, tumor growth; type: in vivo, mice; conditions: for antitumor activity (in words): 10 mg/kg po QD x16; for Average Tumor Volume (mm^3) / Tumor Size (Day 27, mm^3) / TGI (%): 10 mg/kg po QD; for TGI (%): tumor growth inhibition
Method: Treatment: The treatments started on Day 11 after tumor inoculation when the mean tumor size reached approximately 150 mm^3. Mice were randomized into 10 study groups and each group consisted of 8 mice. The test articles were administrated to the tumor-bearing mice according to predetermined treatment regimen as shown in Table 3.
Tumor measurements and the endpoints: The major endpoint was to see if the tumor growth could be delayed or regressed. Tumor size was measured twice a week in two dimensions using a caliper, and the volume was expressed in mm^3 using the formula: V=0.5a×b^2 where a and b are the long and short diameters of the tumor, respectively. The tumor size was then used for calculation of tumor growth inhibition (TGI, in percent). The TGI value is an indication of antitumor effectiveness: TGI=(1−T/C)×100%. T and C are the means of relative tumor volumes of the treated and control groups, respectively. T and C are calculated using the formula: T=Td/T0×100%, C=Cd/C0×100%, where Td and Cd are tumor volumes of the treated and control animals, respectively, on Day 28 after tumor inoculation; T0 and C0 are tumor volumes of the treated and control animals, respectively, at the start of the treatment

[3] = Toxicity profile, body weight in Ba/F3 splenomegaly model; type: in vivo; parameters: Delta Body Weight Loss: unit not given here; conditions: for observed toxicity (in words): 10 mg/kg over 7 days of dosing; for Delta Body Weight Loss: 10 mg/kg oral QD
Excerpt: The […] cell line, Ba/F3, depends on the addition of IL-3 for growth in cell culture. However Ba/F3 cells engineered to express a full length oncogene is capable of rendering Ba/F3 cells factor-independent, but become apoptotic when the oncogene or downstream signaling is inhibited by the addition of small molecule inhibitors. When injected into the tail veins of nude mice, the factor-independent Ba/F3 cells home to the spleen and proliferate to cause a marked splenomegaly. The in vivo proliferation of the factor-independent Ba/F3 cells and appearance of splenomegaly are directly dependent on the activity of the Ba/F3 cells and can be blocked by oral administration of compounds that are effective inhibitors of cell growth. Therefore, this animal model can be used to ascertain the effective doses for Ba/F3 cell inhibition, evaluation of both PK/PD effects as well as a readout of toxicity or MTD.
FIG. 2 illustrates the observed toxicity when dosing Compound P-001 and Compound Z at 10 mg/kg to nu/nu mice over a period of 7 days.

[4] = Table 2, titled Peroral (PO) Administration in Rat
[5] = 1 mg/kg, Table 1, titled Intravenous (IV) Administration in Rat
[6] = 2 mg/kg, Table 2, titled Peroral (PO) Administration in Rat

Compound | Cl (mL/min/Kg) [1, 4] | Vss (L/Kg) [1, 4] | AUC [1, 5] [ng·h/mL] | Cmax [1, 5] [ng/mL] | Tmax [1, 5] [min] | half-life [1, 5] [min] | AUC [1, 6] [ng·h/mL] | bioavailability [1, 6] [%] | antitumor activity (in words) [2] | Average Tumor Volume (mm^3) ([2]; Day 0) | Average Tumor Volume (mm^3) ([2]; Day 4) | Average Tumor Volume (mm^3) ([2]; Day 6) | Average Tumor Volume (mm^3) ([2]; Day 8) | Average Tumor Volume (mm^3) ([2]; Day 11) | Average Tumor Volume (mm^3) ([2]; Day 13) | Tumor Size (Day 27, mm^3) [2] [mm^3] | TGI (%) [2] [%] | observed toxicity (in words) [3] | Delta Body Weight Loss ([3]; Day 1) | Delta Body Weight Loss ([3]; Day 2) | other results
Cc1noc(C)c1-c1cnc2c(-c3ccc(C(=O)O)cc3)cn(C(C)(c3ccccn3)c3ccccn3)c2c1 [Compound P-001, 4-(1-(1,1-di(pyridin-2-yl)ethyl)-6-(3,5-dimethylisoxazol-4-yl)-1H-pyrrolo[3,2-b]pyridin-3-yl)benzoic acid] | 3 (0) mL/min/Kg | 0.469 (0.015) L/Kg | 7670 | 1210 | 40.2 | 248 | 7670 | 103 | strong antitumor activity; also recorded: strong therapeutic efficacy | 124.7 | 94.5 | 91.5 | 90.0 | 96.9 | 99.2 | 99.2 ± 13.5 | 112 | no toxicity was observed | 0 | 0.75 | rat PK compared to Compound Z (in words) ([1]; IV and PO): dramatic improvement; Delta Body Weight Loss ([3]; Day 3): 1.375; Delta Body Weight Loss ([3]; Day 5): 1.125; Delta Body Weight Loss ([3]; Day 6): 1.825; Delta Body Weight Loss ([3]; Day 7): 2.075
Cc1noc(C)c1-c1cnc2c(-c3ccc(C(=O)O)cc3)cn(C(c3ccccn3)c3ccccn3)c2c1 [Compound Z, reference compound] | 36 (4) mL/min/Kg | 1.061 (0.109) L/Kg | 125 | 80 | 30 | 78.6 | 125 | 17 | moderate antitumor activity | 124.0 | 119.8 | 124.0 | 120.6 | 106.8 | 141.5 | 141.5 ± 16.3 | 92 | significant toxicity after the 2nd day of dosing | 0 | −0.125 | Delta Body Weight Loss ([3]; Day 3): −0.6; Delta Body Weight Loss ([3]; Day 5): −1.125; Delta Body Weight Loss ([3]; Day 6): −2.475; Delta Body Weight Loss ([3]; Day 7): −3.75
